ChEMBL document CHEMBL4422656, “Kallikrein 5 inhibitors identified through structure based drug design in search for a treatment for Netherton Syndrome” (Bioorg Med Chem Lett, 2019)

Legend:
[1] = molecular target: T1, Kallikrein-14 (Homo sapiens) (UniProt Q9P0G3); test: Inhibition of KLK14 (unknown origin) at 100 uM using Boc-Val-Pro-Arg- AMC substrate incubated for 15 mins by fluorescence assay
T1 sequence (whole entry): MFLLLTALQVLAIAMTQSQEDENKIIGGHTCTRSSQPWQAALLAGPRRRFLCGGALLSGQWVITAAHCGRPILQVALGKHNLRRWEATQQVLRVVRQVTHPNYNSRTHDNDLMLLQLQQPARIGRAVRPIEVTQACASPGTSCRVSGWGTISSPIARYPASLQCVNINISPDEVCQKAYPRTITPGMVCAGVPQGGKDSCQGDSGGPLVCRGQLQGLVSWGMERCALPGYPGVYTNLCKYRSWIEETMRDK

Kallikrein-5 [2] = molecular target: T2, Kallikrein-5 (Homo sapiens, UniProt Q9Y337); test: Inhibition of KLK5 (unknown origin) using Boc-Val-Pro-Arg-AMC substrate incubated for 15 mins by fluorescence assay
T2 sequence (Q9Y337 whole entry): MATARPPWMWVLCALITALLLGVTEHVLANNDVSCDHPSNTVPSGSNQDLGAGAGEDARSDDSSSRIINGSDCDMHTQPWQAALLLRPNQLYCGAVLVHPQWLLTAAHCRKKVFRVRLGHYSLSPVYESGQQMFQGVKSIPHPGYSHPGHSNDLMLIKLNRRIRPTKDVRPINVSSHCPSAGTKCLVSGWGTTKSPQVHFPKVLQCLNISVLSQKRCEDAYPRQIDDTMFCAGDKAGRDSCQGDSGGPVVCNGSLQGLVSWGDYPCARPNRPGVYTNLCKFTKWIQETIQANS

Kallikrein-5 [3] = molecular target: T2, Kallikrein-5; test: Inhibition of recombinant human FLAG-tagged KLK5 expressed in baculovirus infected sf9 insect cells using (Tos-Gly-Pro-Arg)2[R110].2TFA as substrate measured every 30 secs intervals for 5 mins by Rhodamine110 dye-based fluorescence assay
Kallikrein-1 = Kallikrein-1 (Homo sapiens, UniProt P06870); test: Inhibition of recombinant human N-terminal his-tagged KLK1 (19 to 262 residues) expressed in baculovirus infected sf9 insect cells using R110 labelled GSK3162232A as substrate measured every 30 secs intervals for 5 mins by Rhodamine110 dye-based fluorescence assay
Kallikrein-1, sequence (P06870 whole entry, the tested form may be a part): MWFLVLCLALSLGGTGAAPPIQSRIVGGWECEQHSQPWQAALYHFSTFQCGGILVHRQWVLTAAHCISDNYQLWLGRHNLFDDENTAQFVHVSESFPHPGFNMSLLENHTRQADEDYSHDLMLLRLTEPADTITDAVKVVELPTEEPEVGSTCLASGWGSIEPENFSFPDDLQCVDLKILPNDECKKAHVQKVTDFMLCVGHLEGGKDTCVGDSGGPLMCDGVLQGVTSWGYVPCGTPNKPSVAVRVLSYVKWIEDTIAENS

Homo sapiens = species: Homo sapiens; test: Selectivity ratio of IC50 for recombinant human N-terminal his-tagged KLK1 (19 to 262 residues) to IC50 for recombinant human FLAG-tagged KLK5
[4] = Dissociation constant, pKa of phenol group of the compound by UV spectrophotometric analysis; type: physicochemical
Kallikrein-5 [5] = molecular target: T2, Kallikrein-5; test: Inhibition of recombinant human KLK5 using S-2288 substrate
Kallikrein-7 = Kallikrein-7 (Homo sapiens, UniProt P49862); test: Inhibition of recombinant human KLK7 using S-2586 substrate
Kallikrein-7, sequence (P49862 whole entry): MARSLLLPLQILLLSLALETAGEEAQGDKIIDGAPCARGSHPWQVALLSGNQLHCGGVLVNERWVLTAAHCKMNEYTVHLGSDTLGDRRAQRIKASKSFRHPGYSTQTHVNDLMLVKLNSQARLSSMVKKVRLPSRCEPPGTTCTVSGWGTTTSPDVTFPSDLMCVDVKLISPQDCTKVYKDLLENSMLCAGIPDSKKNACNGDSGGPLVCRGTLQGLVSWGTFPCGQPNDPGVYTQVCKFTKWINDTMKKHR

| Compound | IC50 (Kallikrein-5 [3]) [µM] | IC50 (Kallikrein-1) [µM] | other results |
| --- | --- | --- | --- |
| O=C1Oc2ccccc2CC1C(=O)Oc1nccc2ccccc12 (stereo unspecified) | – | – | inhibition [1]: 61%; IC50 (Kallikrein-5 [2]): 7 µM |
| N=C(N)c1ccc(NC(=O)c2ccccc2O)c(F)c1 | 2.51 | 3.16 | – |
| Cn1c(C(=O)Nc2ccc(C(=N)N)cc2)nc2ccccc21 | 12.6 | 200 | Ratio IC50 (Homo sapiens): 10 |
| COc1cccc(C(=O)Nc2ccc(C(=N)N)c(F)c2)c1O | 1 | 0.251 | – |
| N=C(N)c1ccc(NC(=O)C2CCCNC2=O)cc1 (stereo unspecified) | 10 | 501 | Ratio IC50 (Homo sapiens): 100 |
| N=C(N)c1ccc(NC(=O)c2cccc(Cl)c2O)cc1 | 2.51 | 0.631 | pKa [4]: 5 |
| Cc1cc(C(=N)N)ccc1NC(=O)c1ccccc1O | 12.6 | 5.01 | – |
| N=C(N)c1ccc(NC(=O)c2ccccc2O)cc1 | 6.31 | 12.6 | pKa [4]: 6.8 |
| COc1cccc(C(=O)Nc2ccc(C(=N)N)cc2)c1O | 0.501 | 0.316 | pKa [4]: 6.6 |
| COc1cccc(C(=O)Nc2ccc(C(=N)N)c(Cl)c2)c1O | 10 | 1.26 | – |
| CCOc1cccc(C(=O)Nc2ccc(C(=N)N)cc2)c1O | 5.01 | 0.126 | – |
| N=C(N)c1ccc(NC(=O)c2ccccc2O)cc1F | 20 | 12.6 | – |
| Cc1cccc(C(=O)Nc2ccc(C(=N)N)cc2)c1O | 7.94 | 3.16 | pKa [4]: 6.8 |
| N=C(N)c1ccc(NC(=O)c2cccc(O)c2O)cc1 | 2.51 | 3.98 | – |
| CCOc1cc2c(=O)oc(-c3ccccc3OC)nc2cc1OC | – | – | IC50 (Kallikrein-5 [5]): 200 nM; IC50 (Kallikrein-7): 48 nM |
| N=C(N)c1ccc(NC(=O)N2CCCNC2=O)cc1 | 10 | 631 | Ratio IC50 (Homo sapiens): 100 |
| Cn1cccc(C(=O)Nc2ccc(C(=N)N)cc2)c1=O | 158 | 501 | – |
